# Measurements published in patent EP4147700A1, “N-(4-(AZAINDAZOL-6-YL)-PHENYL)-SULFONAMIDES FOR USE IN THE TREATMENT OF SICKLE CELL DISEASE” (LQT Therapeutics Inc., priority 2021, dated 2023).
# How the values were obtained:
# [1] = test system: CD34+ cells from patients with sickle cell disease; conditions: for F-cell (HbF+) frequency in enucleated GlyA+ cells: CD34+ cells from patients with sickle cell disease, compared to control (DMSO) (FIG. 4A)
# Description: To measure the effect of Compound 346 on fetal hemoglobin induction in CD34+ cells from patients with sickle cell disease, circulating CD34+ progenitor cells were isolated from total blood obtained from sickle cell patients, by performing a positive selection for CD34+ cells with magnetic beads (Miltenyi Biotec). Purified CD34+ cells were differentiated for 14 days. After differentiation, cells were fixed and stained with CD235a, CD71 and fetal hemoglobin antibodies for flowcytometry analysis.
# [2] = test system: human CD34+ cells; conditions: for F-cell (HbF+) frequency in enucleated GlyA+ cells / fold change in fetal hemoglobin expression: 14 days of differentiation; for F-cell (HbF+) frequency in enucleated GlyA+ cells: compared to control (DMSO) (FIG. 3A); for fold change in fetal hemoglobin expression: human CD34+ cells, compared to control (Vehicle as DMSO) (FIG. 3B)
# Procedure: Mobilized CD34+ Human Stem/Progenitor Cells (HSPC) from healthy individuals were cultured for 3 days in a maintenance media consisting of X-VIVO 10 (VWR), 100 U/mL penicillin-streptomycin (ThermoFisher), 2mM L-glutamine (Fisher Scientific), 100 ng/mL Recombinant Human Stem Cell Factor (SCF), 100 ng/mL Recombinant Human Thrombopoietin (TPO) and 100 ng/mL Recombinant Human Flt-3 Ligand (Flt-3L) (all three from ThermoFisher). Cells were differentiated into erythroid cells using a three-step differentiation protocol developed by the Luc Douay group (Giarratana et al. 2005). In brief, CD34+ cells were cultured for 7 days in Step 1 media, consisting of Iscove's modified Dulbecco's medium (IMDM) (ThermoFisher) supplemented with 1X GlutaMAX, 100 U/mL penicillin-streptomycin (ThermoFisher), 5% human AB+plasma, 330 ug/mL human holo-transferrin, 10 ug/mL human insulin, 2 U/mL heparin, 1 uM/mL hydrocortisone (Sigma-Aldrich), 3 U/mL recombinant human erythropoietin (EPO) (ThermoFisher), 100 ng/mL SCF (ThermoFisher) and 5 ng/mL interleukin 3 (IL-3) (SigmaAldrich). On day 7, cells were transferred to step 2 media, a step 1 media without hydrocortisone and IL-3 and cultured for 3-4 days. Then cells were cultured for 8-9 days in step 3 media, a step 2 media without SCF. […] To determine the percentage of HbF-positive cells (F-cells), differentiated cells were fixed and permeabilized using a fixation kit (ThermoFisher). Cells were stained with PE-Cy7-conjugated anti-CD235 or PE-conjugated anti-CD71 antibodies. HbF levels were detected using Allophycocyanin (APC)-conjugated anti-HbF antibody (ThermoFisher). The acquisition of stained cells was performed on BD FACSCanto™ and the analysis was run using FlowJo™ Software.
# After 14 days of differentiation, cells were fixed and stained with CD235a, CD71 and fetal hemoglobin antibodies for flowcytometry analysis.
# [3] = test system: sickle erythroid cells; test: Sickling assay under hypoxia (ImageStream flow cytometry) of 21-day differentiated erythroid cells; type: cell-based, human; conditions: cells derived from CD34+ cells of sickle patients, 21 days of differentiation, 4 hours at 2% oxygen, compared to vehicle, p < 0.01 (FIG. 6)
# Procedure: To evaluate the effect of Compound 346 in sickle erythroid cells sickling, a sickling assay was conducted. […] Purified CD34+ cells were differentiated for 21 days. At the end of the differentiation, cells were incubated for 4 hours at 2% of oxygen in Hemox Buffer (Fisher Scientific) supplemented with 10mM Glutamine (Gibco) and 0.5% BSA (Sigma Aldrich). After exposure to hypoxia, cells were fixed with 25% of glutaraldehyde (Sigma Aldrich) and transferred to tubes for flowcytometry analysis, using a Amnis® ImageStream® flow cytometer to assess abnormal shaped cells. Cells were determined using RMS of brightfield image, and single cells using Area vs Aspect Ratio of brightfield image, and live cells were identified using a Live Dead NIR stain. Single living cells were analyzed using the following masking of the brightfield image: Skeleton (M1, Ch1, Thin), Object (M1, Ch1, Tight). Finally, the sickling factor was calculated using the following feature: Length_Skeleton (M1, CH1, Thin)/Width_(M1, Ch1, Tight). Cells with a sickle factor feature of 1.4 or higher were sickled. Cells with a sickle factor feature less than 1.4 were not sickled.
# [4] = test system: FOXO3; test: SGK1 downstream pathway: Western blot of FOXO3 phosphorylation at Serine 315 in CD34+ cells; type: cell-based, human; conditions: CD34+ cells from a healthy donor, day 11 of differentiation, 1-hour time point, densitometry (FIG. 5)
# Procedure: (§1) To verify SGK1 target engagement by Compound 346, CD34+ cells from a healthy donor were exposed to Compound 346 at the indicated dose (µM), harvested and lysed at the indicated time points. Phosphorylation of SGK1 at threonine 256 (Thr256) was assessed by Western blot using antibody anti-pSGK1 (Thr256) (Thermofisher) and anti-SGK1 (Cell Signaling). Human CD34+ cells, cells were collected on Day 11 of differentiation then exposed to Compound 346. According to the time course, cells were collected and lysed using RIPA buffer mixed with a phosphatase and protease inhibitors cocktail (Thermofisher). Sample protein concentrations were measured with the Pierce […] (ThermoFisher). The α-tubulin antibody (Cell Signaling) served as an internal control. Immunoreactive proteins were visualized by using an ECL® (enhanced chemiluminescence) detection system (BioRad). Optical density was measured with ImageJ software (National Institutes of Health, Bethesda, MD) and the ratio of phospho-SGK1 to total SGK1 was calculated, normalized on α-tubulin, and plotted based on the densitometry measurements. […] Furthermore, SGK1 downstream pathway activation was verified by measuring phosphorylation of FOXO3 at Serine 315, a direct target of activated SGK1. Quantification of FOXO3 activation was assessed by Western Blot using antibodies anti-pFOXO3 (Ser315) and anti-FOXO3 (Cell Signaling). […]
# [5] = biological target: T1, SGK1 (Homo sapiens, UniProt O00141); test: SGK1 target engagement: Western blot of SGK1 phosphorylation at Thr256 in CD34+ cells; type: cell-based; conditions: CD34+ cells from a healthy donor, day 11 of differentiation, 1h after exposure (FIG. 5)
# T1 construct: endogenous in cells; host or cells: Mobilized human CD34+ HSPC from a healthy donor, day 11 of erythroid differentiation
# T1 sequence (O00141 1-431): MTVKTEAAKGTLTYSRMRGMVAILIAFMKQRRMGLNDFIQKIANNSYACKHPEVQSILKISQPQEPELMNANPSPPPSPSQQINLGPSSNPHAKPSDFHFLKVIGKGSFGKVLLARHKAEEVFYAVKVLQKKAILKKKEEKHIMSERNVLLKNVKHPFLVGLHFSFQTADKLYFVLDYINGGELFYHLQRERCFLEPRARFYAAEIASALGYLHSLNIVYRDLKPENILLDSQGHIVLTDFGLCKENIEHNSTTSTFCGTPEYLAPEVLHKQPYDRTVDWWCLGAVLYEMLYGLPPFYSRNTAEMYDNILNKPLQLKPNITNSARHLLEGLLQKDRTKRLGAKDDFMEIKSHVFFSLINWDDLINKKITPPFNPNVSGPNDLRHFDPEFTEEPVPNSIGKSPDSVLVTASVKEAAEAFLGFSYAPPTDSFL
# Procedure: as §1
# [6] = CD34+ HSPC from healthy individuals
structure (smiles),measurement,setting,value
Cc1n[nH]c2nc(-c3ccc(NS(=O)(=O)c4cc(Cl)ccc4F)cc3)nc(OC3CCN(C(C)C)CC3)c12 [Compound 346],F-cell (HbF+) frequency in enucleated GlyA+ cells,[1],increasing
same,HbF+ fold change to control,"[1]; CD34+ cells from sickle cell patients, 14 days of differentiation, compared to control (Vehicle as DMSO) (FIG. 4B)",1.5 fold
same,F-cell (HbF+) frequency in enucleated GlyA+ cells,[2]; [6],increases
same,increase of HbF+ cells (HbF+ fold change to control),"[2]; CD34+ HSPC from healthy individuals, 21 days of differentiation, compared to DMSO (FIG. 2B)",about 1.5 fold
same,frequency of F-cells (HbF+),"[2]; CD34+ HSPC from healthy individuals, 21 days of differentiation, compared to vehicle (DMSO) (FIG. 2A)",increased
same,fold change in fetal hemoglobin expression,[2],"1,5 fold"
same,sickling of erythroid cells induced by hypoxia,[3],significantly protected from sickling
same,phosphorylation of FOXO3 at Serine 315,[4],decrease
same,"p-SGK1 (Thr256), ratio of phospho-SGK1 to total SGK1",[5],decrease
"NC(=O)NO [Hydroxyurea, hydroxyurea, reference compound]",F-cell (HbF+) frequency in enucleated GlyA+ cells,[1],increase
same,F-cell (HbF+) frequency in enucleated GlyA+ cells,[2]; [6],increases
same,fold change in fetal hemoglobin expression,[2],"1,5 fold"
